Data taken from patent publication US4177269A, “Novel 17-esters of 17α-hydroxy gestogens, compositions containing such compounds, processes for their preparation and methods of treatment therewith” (Aktiebolaget Leo, priority 1976, dated 1979).

Legend:
[1] = tested on: Lymphatic leukemia L 1210; assay: Lymphatic leukemia L 1210 survival in mice; assay type: in vivo, CDF1 (C3H×DBA/2)F1 mice; details: one i.p. injection; for Weight change Δv: T - C up to the 5th day
Description: The experimental design and the interpretation of the results are in accordance with the standards set by the CCNSC (Cancer Chemotherpy Reports, January 1959 and December 1962).
Lymphatic leukemia L 1210.
Experimental animals: CDF1 (C3H×DBA/2)F1 mice
Tumour implant: 10^5 tumour cells i.p.
Therapy: One injection i.p. on the day following implanta-
Evaluation: (a) The survival time of the test animals (t)
expressed as the percentage of that of control animals (c).
(b) Weight change in the test animals (T) compared with that
of the control animals (C) up to the 5th day.
(c) The mortality rate must not exceed 35% in the test
animals on the 5th day of therapy.

[2] = tested on: Hepatome AH 130; assay: Hepatome AH 130 tumour growth inhibition in rats; assay type: in vivo, Sprague-Dawley rats; design: ED50: unit not given here; details: one i.p. injection, dose causing 50 percent reduction of tumour size, killed 8th day
In short: (§1)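 Sprague-Dawley rats implanted i.p. with 5 × 10^6 tumour cells, given a single i.p. injection the day after implantation, and killed on day 8. Tumour weights compared with controls; ED50 is the dose halving tumour size, LD50 the dose lethal to 50% of animals.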

[3] = Hepatome AH 130 tumour growth inhibition in rats; assay type: in vivo, Sprague-Dawley rats; design: ED50: unit not given here; details: rat, in vivo, ip, one i.p. injection
In short: as §1

Compound: CC(=O)[C@@]1(OC(=O)COC(=O)c2ccc(C)c(N(CCCl)CCCl)c2)CC[C@H]2[C@@H]3CCC4=CC(=O)CC[C@]4(C)[C@H]3CC[C@@]21C [Compound 3:7, 17α-/3-(N,N-bis(2-chloroethyl)amino)-4-methylbenzoyloxyacetoxy/pregn-4-ene-3,20-dione]
- Effect (survival time of test animals as percentage of that of control animals) ([1]; 250 mg/kg): 130%
- Mortality ([1]; 250 mg/kg): 0/20
- Weight change Δv ([1]; 250 mg/kg): -4.0 g
- Effect (survival time of test animals as percentage of that of control animals) ([1]; 500 mg/kg): 172%
- Mortality ([1]; 500 mg/kg): 0/19
- Weight change Δv ([1]; 500 mg/kg): -5.2 g
- ED50 [2]: 2
- LD50 ([3]; dose causing 50 percent lethality, column head not given): > 250 mg/kg
- selectivity ratio ([3]; read-out: T.I. (LD50/ED50)): > 125
